Reference: US8410116B2, “Bis(styryl)pyrimidine or bis(styryl)benzene compounds, pharmaceutically acceptable salts thereof, preparation method thereof, and pharmaceutical composition for prevention or treatment of diseases featuring amyloids comprising the same as an active ingredient” (Korea Institute of Science and Technology, priority 2009, dated 2013)

Legend:
beta amyloid (1-42) = beta amyloid (1-42) (Homo sapiens, UniProt P05067); test: Inhibitory activity against beta amyloid fibril formation (ThT fluorescence); type: biochemical; conditions: for remaining activity at 10 µM: compound 10 μM, beta amyloid (1-42) 25 μM, 1 hr room temperature, beta amyloid alone (control) = 100
Experimental: The compounds of the present invention were assayed for inhibitory activity against the formation of beta amyloid fibrils as a function of ThT fluorescence intensity as follows. Beta amyloid (1-42) and each of the compounds of Examples 1 to 27 were dissolved in DMSO and diluted with PBS (phosphate-buffered saline, pH 7.4). The final concentrations of beta amyloid (1-42) (control) and each of the compounds of Examples 1 to 27 were set at 25 μM and 10 μM, respectively. The dilutions were incubated at room temperature for 1 hr before a solution of thioflavin T (ThT, 5 μM, pH 8.5) in glycin-NaOH buffer was added thereto. Fluorescence was measured at 450 nm for excitation (slit 10 nm) and […] for emission (slit 10 nm) on 96-well microplates using a multilabel fluorescence counter.

HT-22 cells = test: Cytotoxicity in HT-22 cell (MTT); type: cell-based, murine; conditions: compound 25 μM, 18 hrs
Experimental: The following experiment was performed with HT-22 cells in order to examine the cytotoxicity of the compounds of the Examples in accordance with the present invention.
(§1) The murine hippocampal neuronal cell line HT-22 was incubated at 37° C. in DMEM (Dulbecco's Modified Eagle's Medium) supplemented with 10% FBS (fetal bovine serum) and 1% penicillin/streptomycin in a 5% CO2 incubator. Before testing, HT-22 cells were seeded at a density of 5×10^3 cells/well onto 96-well plates containing serum-free DMEM and incubated for 1 hr. Afterwards, each of the compounds of Examples 1 to 27 was added at a concentration of 25 μM to each well before incubation for 18 hrs. 5 mg/ml MTT (3-(4,5-dimethyl-2-thiozolyl)-2,5-diphenyl-2H-tetrazolium bromide) solution was added in an amount of 15 μl per well and incubated for 4 hrs. A solubilization solution (10% SDS, 50% dimethylformamide, pH 4.7) was added in an amount of 100 μl to each well, followed by incubation for 18 hrs. Absorbance at 570 nm/630 nm was read on a microplate reader.

[1] = tested on: HT-22 cells incubated with beta amyloid (Aβ25-35); test: Alleviating effect on beta amyloid toxicity in HT-22 cells (MTT); type: cell-based, murine; conditions: Mus musculus, compound pre-incubated 1 hr, then 25 μM beta amyloid (Aβ25-35) for 18 hrs, Aβ25-35 line = toxin alone, read-out: Cell Survival (%)
Experimental: as §1
The following experiment was performed in order to examine the ability of the compounds of the Examples in accordance with the present invention to alleviate beta amyloid toxicity. HT-22 cells were cultured and incubated with the compounds of Examples 1 to 27 for 1 hr in the same manner as in Example 2. Cell necrosis was induced by beta amyloid toxicity. For this, the cells were incubated with 25 μM of beta amyloid (Aβ25-35) for 18 hrs. Subsequently, a 5 mg/ml MTT solution was added in an amount of 15 μl to each well, followed by incubation for 4 hrs. Then, the cells were again incubated for 18 hrs with 100 μl/well of the solubilization solution. Absorbance at 570 nm/630 nm was read on a microplate reader.

beta amyloid (1-42), sequence (P05067 672-713 limits assumed): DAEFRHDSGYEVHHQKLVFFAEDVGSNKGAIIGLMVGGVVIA

## CN(C)c1ccc(/C=C/c2cc(O)cc(/C=C/c3ccc(N(C)C)c(O)c3)c2)cc1O [Ex. 27, (E,E)-3,5-bis[3′-hydroxy-4′-(N,N-dimethylamino)styryl]phenol]
Beta amyloid (1-42)
  remaining activity at 10 µM: 16.7 ± 0.7%
HT-22 cells
  Cell Survival (%): 64.4 ± 4.2%
[1]
  viability at 25 µM: 50.5 ± 3.9%

## Oc1cccc(/C=C/c2cc(/C=C/c3cccc(O)c3)ncn2)c1 [Ex. 5, (E,E)-4,6-bis(3′-hydroxystyryl)pyrimidine]
Beta amyloid (1-42)
  remaining activity at 10 µM: 85.9 ± 19.7%
HT-22 cells
  Cell Survival (%): 142.5 ± 5.6%
[1]
  viability at 25 µM: 43.5 ± 13.4%

## COc1nc(/C=C/c2ccc(O)c(OC)c2)cc(/C=C/c2ccc(O)c(OC)c2)n1 [Ex. 10, 2-methoxy-(E,E)-4,6-bis(4′-hydroxy-3′-methoxystyryl)pyrimidine]
Beta amyloid (1-42)
  remaining activity at 10 µM: 32 ± 11.6%
HT-22 cells
  Cell Survival (%): 75.2 ± 12.5%
[1]
  viability at 25 µM: 71.7 ± 14.8%

## Oc1ccc(/C=C/c2cc(O)cc(/C=C/c3ccc(O)cc3)c2)cc1 [Ex. 22, (E,E)-3,5-bis(4′-hydroxystyryl)phenol]
Beta amyloid (1-42)
  remaining activity at 10 µM: 19.3 ± 1.1%
HT-22 cells
  Cell Survival (%): 37.4 ± 4.7%
[1]
  viability at 25 µM: 50.6 ± 10.1%

## Oc1cccc(/C=C/c2cc(O)cc(/C=C/c3cccc(O)c3)c2)c1 [Ex. 23, (E,E)-3,5-bis(3′-hydroxystyryl)phenol]
Beta amyloid (1-42)
  remaining activity at 10 µM: 92.9 ± 12.4%
HT-22 cells
  Cell Survival (%): 59.2 ± 15.4%
[1]
  viability at 25 µM: 47.7 ± 11.1%

## COc1cc(/C=C/c2cc(O)cc(/C=C/c3ccc(O)c(OC)c3)c2)ccc1O [Ex. 24, (E,E)-3,5-bis(4′-hydroxy-3′-methoxystyryl)phenol]
Beta amyloid (1-42)
  remaining activity at 10 µM: 21 ± 2.4%
HT-22 cells
  Cell Survival (%): 80.9 ± 13.1%
[1]
  viability at 25 µM: 39.9 ± 9.5%

## CSc1nc(/C=C/c2ccc(O)c(N(C)C)c2)cc(/C=C/c2ccc(O)c(N(C)C)c2)n1 [Ex. 18, 2-methylthio-(E,E)-4,6-bis[4′-hydroxy-3′-(N,N-dimethylamino)styryl]pyrimidine]
Beta amyloid (1-42)
  remaining activity at 10 µM: 21.4 ± 10.3%
HT-22 cells
  Cell Survival (%): 77.3 ± 15.1%
[1]
  viability at 25 µM: 50.9 ± 5.7%

## COc1nc(/C=C/c2ccc(O)c(N(C)C)c2)cc(/C=C/c2ccc(O)c(N(C)C)c2)n1 [Ex. 12, 2-methoxy-(E,E)-4,6-bis[4′-hydroxy-3′-(N,N-dimethylamino)styryl]pyrimidine]
Beta amyloid (1-42)
  remaining activity at 10 µM: 25.9 ± 7.3%
HT-22 cells
  Cell Survival (%): 96.6 ± 13.7%
[1]
  viability at 25 µM: 59 ± 5.7%

## Oc1ccc(/C=C/c2cc(/C=C/c3ccc(O)cc3)ncn2)cc1 [Ex. 4, (E,E)-4,6-bis(4′-hydroxystyryl)pyrimidine]
Beta amyloid (1-42)
  remaining activity at 10 µM: 35.7 ± 7%
HT-22 cells
  Cell Survival (%): 104.2 ± 7.1%
[1]
  viability at 25 µM: 81 ± 1.2%

## CSc1nc(/C=C/c2cccc(O)c2)cc(/C=C/c2cccc(O)c2)n1 [Ex. 15, 2-methylthio-(E,E)-4,6-bis(3′-hydroxystyryl)pyrimidine]
Beta amyloid (1-42)
  remaining activity at 10 µM: 153 ± 16.3%
HT-22 cells
  Cell Survival (%): 43.7 ± 6.6%
[1]
  viability at 25 µM: 39.6 ± 0.4%

## CN(C)c1cc(/C=C/c2cccc(/C=C/c3ccc(O)c(N(C)C)c3)c2)ccc1O [Ex. 20, (E,E)-1,3-bis[4′-hydroxy-3′-(N,N-dimethylamino)styryl]benzene]
Beta amyloid (1-42)
  remaining activity at 10 µM: 36.1 ± 10.1%
HT-22 cells
  Cell Survival (%): 95.7 ± 8.3%
[1]
  viability at 25 µM: 45.8 ± 9.1%

## CN(C)c1ccc(/C=C/c2cccc(/C=C/c3ccc(N(C)C)c(O)c3)c2)cc1O [Ex. 21, (E,E)-1,3-bis[3′-hydroxy-4′-(N,N-dimethylamino)styryl]benzene]
Beta amyloid (1-42)
  remaining activity at 10 µM: 44 ± 8.3%
HT-22 cells
  Cell Survival (%): 100.8 ± 7.6%
[1]
  viability at 25 µM: 52.8 ± 7.2%

## COc1nc(/C=C/c2ccc(O)cc2)cc(/C=C/c2ccc(O)cc2)n1 [Ex. 8, 2-methoxy-(E,E)-4,6-bis(4′-hydroxystyryl)pyrimidine]
Beta amyloid (1-42)
  remaining activity at 10 µM: 32.6 ± 7.3%
HT-22 cells
  Cell Survival (%): 101.2 ± 31.8%
[1]
  viability at 25 µM: 100 ± 7%

## COc1ccc(/C=C/c2cc(O)cc(/C=C/c3ccc(OC)c(O)c3)c2)cc1O [Ex. 25, (E,E)-3,5-bis(3′-hydroxy-4′-methoxystyryl)phenol]
Beta amyloid (1-42)
  remaining activity at 10 µM: 15.5 ± 3.8%
HT-22 cells
  Cell Survival (%): 73.5 ± 14.1%
[1]
  viability at 25 µM: 43.2 ± 10%

## CSc1nc(/C=C/c2ccc(N(C)C)c(O)c2)cc(/C=C/c2ccc(N(C)C)c(O)c2)n1 [Ex. 19, 2-methylthio-(E,E)-4,6-bis[3′-hydroxy-4′-(N,N-dimethylamino)styryl]pyrimidine]
Beta amyloid (1-42)
  remaining activity at 10 µM: 11.2 ± 4.2%
HT-22 cells
  Cell Survival (%): 85.3 ± 8.1%
[1]
  viability at 25 µM: 69.7 ± 0.4%

## CN(C)c1cc(/C=C/c2cc(O)cc(/C=C/c3ccc(O)c(N(C)C)c3)c2)ccc1O [Ex. 26, (E,E)-3,5-bis[4′-hydroxy-3′-(N,N-dimethylamino)styryl]phenol]
Beta amyloid (1-42)
  remaining activity at 10 µM: 25.8 ± 5.8%
HT-22 cells
  Cell Survival (%): 66.0 ± 12.1%
[1]
  viability at 25 µM: 47.4 ± 0.6%

## COc1nc(/C=C/c2cccc(O)c2)cc(/C=C/c2cccc(O)c2)n1 [Ex. 9, 2-methoxy-(E,E)-4,6-bis(3′-hydroxystyryl)pyrimidine]
Beta amyloid (1-42)
  remaining activity at 10 µM: 129 ± 11.6%
HT-22 cells
  Cell Survival (%): 45.9 ± 4.2%
[1]
  viability at 25 µM: 47.7 ± 3.3%

## COc1ccc(/C=C/c2cccc(/C=C/c3ccc(OC)c(O)c3)c2)cc1O [Ex. 3, (E,E)-1,3-Bis(3′-hydroxy-4′-methoxystyryl)benzene]
Beta amyloid (1-42)
  remaining activity at 10 µM: 32.1 ± 1.1%
HT-22 cells
  Cell Survival (%): 69.5 ± 4.2%
[1]
  viability at 25 µM: 54.7 ± 5.3%

## COc1nc(/C=C/c2ccc(N(C)C)c(O)c2)cc(/C=C/c2ccc(N(C)C)c(O)c2)n1 [Ex. 13, 2-methoxy-(E,E)-4,6-bis[3′-hydroxy-4′-(N,N-dimethylamino)styryl]pyrimidine]
Beta amyloid (1-42); Table 3
  Inhibitory activity against fibril formation (in words): remarkable inhibitory activity
Beta amyloid (1-42)
  remaining activity at 10 µM: 9.6 ± 3.7%
HT-22 cells
  Cell Survival (%): 101.4 ± 2.5%
[1]
  viability at 25 µM: 67.4 ± 5.1%

## COc1cc(/C=C/c2cc(/C=C/c3ccc(O)c(OC)c3)nc(SC)n2)ccc1O [Ex. 16, 2-methylthio-(E,E)-4,6-bis(4′-hydroxy-3′-methoxystyryl)pyrimidine]
Beta amyloid (1-42)
  remaining activity at 10 µM: 32.4 ± 12.5%
HT-22 cells
  Cell Survival (%): 79.0 ± 7.9%
[1]
  viability at 25 µM: 49 ± 4.2%

## COc1nc(/C=C/c2ccc(OC)c(O)c2)cc(/C=C/c2ccc(OC)c(O)c2)n1 [Ex. 11, 2-methoxy-(E,E)-4,6-bis(3′-hydroxy-4′-methoxystyryl)pyrimidine]
Beta amyloid (1-42)
  remaining activity at 10 µM: 45 ± 9.2%
HT-22 cells
  Cell Survival (%): 98.4 ± 2.7%
[1]
  viability at 25 µM: 66.2 ± 11.5%

## COc1ccc(/C=C/c2cc(/C=C/c3ccc(OC)c(O)c3)nc(SC)n2)cc1O [Ex. 17, 2-methylthio-(E,E)-4,6-bis(3′-hydroxy-4′-methoxystyryl)pyrimidine]
Beta amyloid (1-42)
  remaining activity at 10 µM: 24.8 ± 11.1%
HT-22 cells
  Cell Survival (%): 78.8 ± 9.3%
[1]
  viability at 25 µM: 78.3 ± 0.4%

## CSc1nc(/C=C/c2ccc(O)cc2)cc(/C=C/c2ccc(O)cc2)n1 [Ex. 14, 2-methylthio-(E,E)-4,6-bis(4′-hydroxystyryl)pyrimidine]
Beta amyloid (1-42)
  remaining activity at 10 µM: 32.6 ± 7.4%
HT-22 cells
  Cell Survival (%): 65.3 ± 6.0%
[1]
  viability at 25 µM: 34.2 ± 4%
